Results taken from ChEMBL document CHEMBL4219237, “Design, synthesis, evaluation, and molecular docking of ursolic acid derivatives containing a nitrogen heterocycle as anti-inflammatory agents” (Bioorg Med Chem Lett, 2018).

Experiments:
[1] = test system: HCT-116; experiment: Cytotoxicity against human HCT116 cells assessed as growth inhibition after 24 hrs by MTT assay; format: cell-based; conditions: HCT-116, 24 h
[2] = test system: Mus musculus; experiment: Antiinflammatory activity in mouse assessed as inhibition of para-xylene-induced ear edema at 100 mg/kg, ip administered 30 mins prior to para-xylene challenge measured after 30 mins relative to control; format: functional
[3] = test system: Mus musculus; experiment: Antiinflammatory activity in mouse assessed as inhibition of para-xylene-induced ear edema at 25 mg/kg, po measured at 2 hrs relative to control; format: functional
[4] = test system: Mus musculus; experiment: Antiinflammatory activity in mouse assessed as inhibition of para-xylene-induced ear edema at 125 mg/kg, po measured at 2 hrs relative to control; format: functional
[5] = test system: Mus musculus; experiment: Antiinflammatory activity in mouse assessed as inhibition of para-xylene-induced ear edema at 50 mg/kg, po measured at 2 hrs relative to control; format: functional
[6] = test system: Mus musculus; experiment: Antiinflammatory activity in mouse assessed as inhibition of para-xylene-induced ear edema at 100 mg/kg, po measured at 2 hrs relative to control; format: functional
[7] = test system: Mus musculus; experiment: Antiinflammatory activity in mouse assessed as inhibition of para-xylene-induced ear edema at 100 mg/kg, po measured at 1 hr relative to control; format: functional
[8] = test system: Mus musculus; experiment: Antiinflammatory activity in mouse assessed as inhibition of para-xylene-induced ear edema at 100 mg/kg, po measured at 4 hrs relative to control; format: functional
[9] = test system: Mus musculus; experiment: Antiinflammatory activity in mouse assessed as inhibition of para-xylene-induced ear edema at 100 mg/kg, po measured at 5 hrs relative to control; format: functional
[10] = test system: Mus musculus; experiment: Antiinflammatory activity in mouse assessed as inhibition of para-xylene-induced ear edema at 100 mg/kg, po measured at 3 hrs relative to control; format: functional
[11] = test system: Mus musculus; experiment: Potency index, ratio of test compound to ibuprofen activity in mouse assessed as inhibition of para-xylene-induced ear edema at 100 mg/kg, ip; format: functional
[12] = test system: AGS; experiment: Cytotoxicity against human AGS cells assessed as growth inhibition after 24 hrs by MTT assay; format: cell-based
[13] = test system: L02; experiment: Cytotoxicity against human L02 cells assessed as growth inhibition after 24 hrs by MTT assay; format: cell-based; conditions: L02, 24 h

Structure (SMILES): C[C@H]1[C@H](C)CC[C@]2(C(=O)OCc3nnc(-c4ccc(Br)cc4)o3)CC[C@]3(C)C(=CC[C@@H]4[C@@]5(C)CC[C@H](O)C(C)(C)[C@@H]5CC[C@]43C)[C@H]12
- IC50 [1]: > 100 µM
- inhibition in vivo at 100 mg/kg [2]: 68.9%

Structure (SMILES): C[C@H]1[C@H](C)CC[C@]2(C(=O)OCc3nnc(-c4cccc(Br)c4)o3)CC[C@]3(C)C(=CC[C@@H]4[C@@]5(C)CC[C@H](O)C(C)(C)[C@@H]5CC[C@]43C)[C@H]12
- IC50 [1]: > 100 µM
- inhibition in vivo at 100 mg/kg [2]: 53.7%

Structure (SMILES): Cc1cccc(-c2nnc(COC(=O)[C@]34CC[C@@H](C)[C@H](C)[C@H]3C3=CC[C@@H]5[C@@]6(C)CC[C@H](O)C(C)(C)[C@@H]6CC[C@@]5(C)[C@]3(C)CC4)o2)c1
- IC50 [1]: > 100 µM

Structure (SMILES): COc1ccc2c(c1)c(CC(=O)O)c(C)n2C(=O)c1ccc(Cl)cc1 [INDOMETHACIN]
- inhibition in vivo at 25 mg/kg [3]: 4.85%
- inhibition in vivo at 125 mg/kg [4]: 38.7%
- inhibition in vivo at 50 mg/kg [5]: 22.8%
- inhibition in vivo at 100 mg/kg [2]: 26.8%
- inhibition in vivo at 100 mg/kg [6]: 30.9 to 33.3%
- inhibition in vivo at 100 mg/kg [7]: 12%
- inhibition in vivo at 100 mg/kg [8]: 15.6%
- inhibition in vivo at 100 mg/kg [9]: 10.3%
- inhibition in vivo at 100 mg/kg [10]: 18.6%

Structure (SMILES): C[C@H]1[C@H](C)CC[C@]2(C(=O)OCc3nnc(-c4ccc(Cl)cc4)o3)CC[C@]3(C)C(=CC[C@@H]4[C@@]5(C)CC[C@H](O)C(C)(C)[C@@H]5CC[C@]43C)[C@H]12
- IC50 [1]: > 100 µM

Structure (SMILES): C[C@H]1[C@H](C)CC[C@]2(C(=O)OCCCN3CCN(Cc4nnc(-c5ccccc5Cl)o4)CC3)CC[C@]3(C)C(=CC[C@@H]4[C@@]5(C)CC[C@H](O)C(C)(C)[C@@H]5CC[C@]43C)[C@H]12
- IC50 [1]: > 100 µM
- inhibition in vivo at 100 mg/kg [2]: 32%

Structure (SMILES): C[C@H]1[C@H](C)CC[C@]2(C(=O)OCc3nnc(-c4ccccc4Br)o3)CC[C@]3(C)C(=CC[C@@H]4[C@@]5(C)CC[C@H](O)C(C)(C)[C@@H]5CC[C@]43C)[C@H]12
- IC50 [1]: > 100 µM
- inhibition in vivo at 100 mg/kg [2]: 55.3%

Structure (SMILES): C[C@H]1[C@H](C)CC[C@]2(C(=O)OCc3nnc(-c4ccccc4Cl)o3)CC[C@]3(C)C(=CC[C@@H]4[C@@]5(C)CC[C@H](O)C(C)(C)[C@@H]5CC[C@]43C)[C@H]12
- IC50 [1]: > 100 µM
- inhibition in vivo at 100 mg/kg [2]: 38.8%

Structure (SMILES): C[C@H]1[C@H](C)CC[C@]2(C(=O)OCCCCn3ncn(-c4ccccc4)c3=O)CC[C@]3(C)C(=CC[C@@H]4[C@@]5(C)CC[C@H](O)C(C)(C)[C@@H]5CC[C@]43C)[C@H]12
- IC50 [1]: > 100 µM
- inhibition in vivo at 100 mg/kg [2]: 66.1%
- Ratio [11]: 2

Structure (SMILES): Cc1ccccc1-c1nnc(COC(=O)[C@]23CC[C@@H](C)[C@H](C)[C@H]2C2=CC[C@@H]4[C@@]5(C)CC[C@H](O)C(C)(C)[C@@H]5CC[C@@]4(C)[C@]2(C)CC3)o1
- IC50 [1]: > 100 µM
- inhibition in vivo at 100 mg/kg [2]: 57.2%

Structure (SMILES): C[C@H]1[C@H](C)CC[C@]2(C(=O)OCCN3CCN(Cc4nnc(-c5ccccc5)o4)CC3)CC[C@]3(C)C(=CC[C@@H]4[C@@]5(C)CC[C@H](O)C(C)(C)[C@@H]5CC[C@]43C)[C@H]12
- IC50 [1]: > 100 µM
- inhibition in vivo at 100 mg/kg [2]: 59.1%

Structure (SMILES): C[C@H]1[C@H](C)CC[C@]2(C(=O)OCCCN3CCN(Cc4nnc(-c5ccccc5)o4)CC3)CC[C@]3(C)C(=CC[C@@H]4[C@@]5(C)CC[C@H](O)C(C)(C)[C@@H]5CC[C@]43C)[C@H]12
- IC50 [1]: > 100 µM
- inhibition in vivo at 100 mg/kg [2]: 47.8%

Structure (SMILES): C[C@H]1[C@H](C)CC[C@]2(C(=O)OCCCn3ncn(-c4ccccc4)c3=O)CC[C@]3(C)C(=CC[C@@H]4[C@@]5(C)CC[C@H](O)C(C)(C)[C@@H]5CC[C@]43C)[C@H]12
- inhibition in vivo at 25 mg/kg [3]: 19.7%
- IC50 [12]: > 200 µM
- IC50 [1]: > 100 µM
- inhibition in vivo at 125 mg/kg [4]: 50.1%
- IC50 [13]: > 200 µM
- inhibition in vivo at 50 mg/kg [5]: 35.2%
- inhibition in vivo at 100 mg/kg [2]: 69.8%
- inhibition in vivo at 100 mg/kg [6]: 41.2 to 47.9%
- inhibition in vivo at 100 mg/kg [7]: 22.6%
- inhibition in vivo at 100 mg/kg [8]: 20.2%
- inhibition in vivo at 100 mg/kg [9]: 16.4%
- inhibition in vivo at 100 mg/kg [10]: 29.7%
- Ratio [11]: 2

Structure (SMILES): C[C@H]1[C@H](C)CC[C@]2(C(=O)OCCn3ncn(-c4ccccc4)c3=O)CC[C@]3(C)C(=CC[C@@H]4[C@@]5(C)CC[C@H](O)C(C)(C)[C@@H]5CC[C@]43C)[C@H]12
- IC50 [1]: > 100 µM
- inhibition in vivo at 100 mg/kg [2]: 64.2%

Structure (SMILES): C[C@H]1[C@H](C)CC[C@]2(C(=O)OCCCN3CCN(Cc4nnc(-c5ccc(F)cc5)o4)CC3)CC[C@]3(C)C(=CC[C@@H]4[C@@]5(C)CC[C@H](O)C(C)(C)[C@@H]5CC[C@]43C)[C@H]12
- IC50 [1]: > 100 µM
- inhibition in vivo at 100 mg/kg [2]: 58.7%

Structure (SMILES): C[C@H]1[C@H](C)CC[C@]2(C(=O)O)CC[C@]3(C)C(=CC[C@@H]4[C@@]5(C)CC[C@H](O)C(C)(C)[C@@H]5CC[C@]43C)[C@H]12 [URSOLIC ACID]
- inhibition in vivo at 100 mg/kg [2]: 57.7%

Structure (SMILES): C[C@H]1[C@H](C)CC[C@]2(C(=O)OCCCCCn3ncn(-c4ccccc4)c3=O)CC[C@]3(C)C(=CC[C@@H]4[C@@]5(C)CC[C@H](O)C(C)(C)[C@@H]5CC[C@]43C)[C@H]12
- IC50 [1]: > 100 µM
- inhibition in vivo at 100 mg/kg [2]: 56.7%
- Ratio [11]: 2

Structure (SMILES): Cc1ccc(-c2nnc(COC(=O)[C@]34CC[C@@H](C)[C@H](C)[C@H]3C3=CC[C@@H]5[C@@]6(C)CC[C@H](O)C(C)(C)[C@@H]6CC[C@@]5(C)[C@]3(C)CC4)o2)cc1
- IC50 [1]: > 100 µM
- inhibition in vivo at 100 mg/kg [2]: 58.2%

Structure (SMILES): CC(C)Cc1ccc(C(C)C(=O)O)cc1 (configuration not stated) [IBUPROFEN]
- inhibition in vivo at 100 mg/kg [2]: 25.2%

Structure (SMILES): C[C@H]1[C@H](C)CC[C@]2(C(=O)OCc3nnc(-c4ccccc4)o3)CC[C@]3(C)C(=CC[C@@H]4[C@@]5(C)CC[C@H](O)C(C)(C)[C@@H]5CC[C@]43C)[C@H]12
- IC50 [1]: > 100 µM
- inhibition in vivo at 100 mg/kg [2]: 62.3%

Structure (SMILES): C[C@H]1[C@H](C)CC[C@]2(C(=O)OCCCN3CCN(Cc4nnc(-c5cccc(Br)c5)o4)CC3)CC[C@]3(C)C(=CC[C@@H]4[C@@]5(C)CC[C@H](O)C(C)(C)[C@@H]5CC[C@]43C)[C@H]12
- IC50 [1]: > 100 µM
- inhibition in vivo at 100 mg/kg [2]: 66.5%

Structure (SMILES): C[C@H]1[C@H](C)CC[C@]2(C(=O)OCCN3CCN(Cc4nnc(-c5cccc(Br)c5)o4)CC3)CC[C@]3(C)C(=CC[C@@H]4[C@@]5(C)CC[C@H](O)C(C)(C)[C@@H]5CC[C@]43C)[C@H]12
- IC50 [1]: > 100 µM
- inhibition in vivo at 100 mg/kg [2]: 61%

Structure (SMILES): C[C@H]1[C@H](C)CC[C@]2(C(=O)OCc3nnc(-c4cccc(Cl)c4)o3)CC[C@]3(C)C(=CC[C@@H]4[C@@]5(C)CC[C@H](O)C(C)(C)[C@@H]5CC[C@]43C)[C@H]12
- IC50 [1]: > 100 µM
- inhibition in vivo at 100 mg/kg [2]: 65.4%
